US9428456B2, “1-[m-carboxamido(hetero)aryl-methyl]-heterocyclyl-carboxamide derivatives” (Actelion Pharmaceuticals Ltd., priority 2012, dated 2016)

What follows are molecules tested against CXCR7 (Homo sapiens (Human), UniProt P25106) (assay: PathHunter CHO-K1 CXCR7 b-arrestin assay (agonistic activity)). Settings: PathHunter CHO-K1 CXCR7 b-arrestin cell line.
Sequence of CXCR7 (P25106 whole entry): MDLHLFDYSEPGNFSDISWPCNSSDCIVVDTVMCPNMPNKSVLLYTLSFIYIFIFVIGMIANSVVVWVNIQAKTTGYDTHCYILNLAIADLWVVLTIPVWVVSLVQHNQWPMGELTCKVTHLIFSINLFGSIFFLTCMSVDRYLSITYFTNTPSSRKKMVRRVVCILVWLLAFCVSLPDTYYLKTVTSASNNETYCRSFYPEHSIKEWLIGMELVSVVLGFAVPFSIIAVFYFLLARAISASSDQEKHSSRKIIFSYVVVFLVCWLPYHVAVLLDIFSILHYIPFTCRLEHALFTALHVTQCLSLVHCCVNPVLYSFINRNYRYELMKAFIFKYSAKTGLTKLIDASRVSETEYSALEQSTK
Sequence of CXCR7 (P32121 whole entry partner): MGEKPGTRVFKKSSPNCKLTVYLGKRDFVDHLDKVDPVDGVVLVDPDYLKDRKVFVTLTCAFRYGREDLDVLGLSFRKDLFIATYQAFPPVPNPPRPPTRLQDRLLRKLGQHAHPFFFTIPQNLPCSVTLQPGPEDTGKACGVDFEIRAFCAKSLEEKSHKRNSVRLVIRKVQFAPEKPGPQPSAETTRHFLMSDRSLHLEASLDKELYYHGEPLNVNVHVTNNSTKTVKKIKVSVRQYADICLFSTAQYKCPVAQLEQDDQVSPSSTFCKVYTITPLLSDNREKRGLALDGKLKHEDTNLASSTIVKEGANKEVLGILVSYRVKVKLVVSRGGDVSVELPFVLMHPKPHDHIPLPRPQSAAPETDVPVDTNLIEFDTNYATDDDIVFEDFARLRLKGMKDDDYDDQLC
Type: cell-based
Experimental: The CXCl12 receptor and CXCR7 agonistic activities of the compounds of formula (I) are determined in accordance with the following experimental method.
The assay is using the PathHunter™ CHO-K1 CXCR7 b-arrestin cell line from DiscoverX. The system is based on the Enzyme Fragment Complementation Technology. Two complementing fragments of the b-galactosidase enzyme are expressed within stably transfected cells. The larger portion of b-gal, termed EA for Enzyme Acceptor, is fused to the C-terminus of b-arrestin 2. The smaller fragment, termed ProLink™ tag, is fused to CXCR7 at the C-terminus. Upon activation, b-arrestin is recruited which forces the interaction of ProLink and EA, allowing complementation of the two fragments of b-gal and the formation of a functional enzyme which is capable of hydrolysing the substrate and generating a chemiluminescent signal.
CHO-K1 CXCR7 b-arrestin cells are detached from culture dishes with a cell dissociation buffer (Invitrogen, #13151-014) and collected in growing medium (F12 HAMS 90% (v/v)/FCS 10% (v/v), Penicilin/streptomycin 1% (v/v)). 5000 cells per well (in 20 μl) are seeded in a 384 well plate (white-walled, clear bottom; BD Falcon #353274). The plate is incubated at 37° C./5% CO2 for 24 hours. Medium is then replaced by 20 μl OPTIMEM (Invitrogen #31985) for 3 to 4 hours. Test compounds are dissolved at 10 mM in DMSO and serially diluted in DMSO to 200× of the final concentration for dose response curves. Compounds are then diluted 1:33.3 in HBSS1×. 5 μl/well of HBSS1×/20 mM HEPES/0.2% BSA are added to the assay plate followed by addition of 5 μl/well of diluted compounds. CXCL12 (Peprotech #300-28A) may be used as a reference agonist. The plate is incubated for 90 minutes at 37° C. 12 μl of detection reagent (Path Hunter Detection Kit, DiscoveRx, #93-0001) is transferred to the assay plate and to the plate is incubated for 1 hour at room temperature. Luminescent signal is read in a microplate reader (FLUOstar Optima, bmg). The calculated EC50 values may fluctuate depending on the daily cellular assay performance. Fluctuations of this kind are known to those skilled in the art. Average EC50 values from several measurements are given as geometric mean values.
In the case of `Cn1cc(C(=O)Nc2cccc(CN3CCC(C(=O)NC4CCCCC4)CC3)c2)c2ccccc21` [Example 1.026], the EC50 is reported as 182 nM.
Molecule `O=C(Nc1cccc(CN2CCC(C(=O)NC3CCCCC3)CC2)c1)c1c[nH]c2ccccc12` [Example 1.027] has an EC50 of 42 nM.
With `O=C(Nc1cccc(CN2CCC(C(=O)NC3CCCCC3)CC2)c1)c1coc2ccccc12` [Example 1.028] the EC50 was 4 nM.
`Cn1cc(CC(=O)Nc2cccc(CN3CCC(C(=O)NC4CCCCC4)CC3)c2)c2ccccc21` [Example 1.030] showed an EC50 of 18 nM.
Work on `COc1ccc(C(=O)Nc2cccc(CN3CCC(C(=O)NC4CCCCC4)CC3)c2)cc1` [Example 1.031] yielded an EC50 of 2 nM.
With `CC(C)(C)c1ccc(C(=O)Nc2cccc(CN3CCC(C(=O)NC4CCCCC4)CC3)c2)cc1` [Example 1.032] the EC50 was 34 nM.
With `O=C(Nc1cccc(CN2CCC(C(=O)NC3CCCCC3)CC2)c1)c1cccc(Cl)c1` [Example 1.033] the EC50 was 2 nM.
Work on `O=C(CCc1ccccc1)Nc1cccc(CN2CCC(C(=O)NC3CCCCC3)CC2)c1` [Example 1.034] yielded an EC50 of 18 nM.
`COc1ccccc1CC(=O)Nc1cccc(CN2CCC(C(=O)NC3CCCCC3)CC2)c1` [Example 1.035] was tested, and the EC50 was 4 nM.
`O=C(Cc1ccc(Cl)cc1)Nc1cccc(CN2CCC(C(=O)NC3CCCCC3)CC2)c1` [Example 1.037] gave an EC50 of 34 nM.
`O=C(Nc1cccc(CN2CCC(C(=O)NC3CCCCC3)CC2)c1)c1ncc[nH]1` [Example 1.038] showed an EC50 of 13 nM.
In the case of `O=C(Nc1cccc(CN2CCC(C(=O)NC3CCCCC3)CC2)c1)c1ccccn1` [Example 1.039], the EC50 is reported as 1 nM.
`O=C(Nc1cccc(CN2CCC(C(=O)NC3CCCCC3)CC2)c1)c1cnc[nH]1` [Example 1.040] was tested, and the EC50 was 1260 nM.
`CC(C)Cc1ccc(C(=O)Nc2cccc(CN3CCC(C(=O)NC4CCCCC4)CC3)c2)cc1` [Example 1.041] gave an EC50 of 43 nM.
In the case of `COc1ccc(CC(=O)Nc2cccc(CN3CCC(C(=O)NC4CCCCC4)CC3)c2)cc1` [Example 1.042], the EC50 is reported as 79 nM.
`O=C(CC1CCCCC1)Nc1cccc(CN2CCC(C(=O)NC3CCCCC3)CC2)c1` [Example 1.043] was tested, and the EC50 was 9 nM.
Work on `O=C(Nc1cccc(CN2CCC(C(=O)NC3CCCCC3)CC2)c1)c1cn[nH]c1` [Example 1.044] yielded an EC50 of 1240 nM.
`O=C(CCc1nc2ccccc2[nH]1)Nc1cccc(CN2CCC(C(=O)NC3CCCCC3)CC2)c1` [Example 1.045] gave an EC50 of 2490 nM.
Molecule `O=C(Nc1cccc(CN2CCC(C(=O)NC3CCCCC3)CC2)c1)c1ccc[nH]1` [Example 1.046] has an EC50 of 5 nM.
Molecule `COc1cccc(CC(=O)Nc2cccc(CN3CCC(C(=O)NC4CCCCC4)CC3)c2)c1` [Example 1.047] has an EC50 of 17 nM.
In the case of `O=C(Nc1cccc(CN2CCC(C(=O)NC3CCCCC3)CC2)c1)c1cccc2ccccc12` [Example 1.048], the EC50 is reported as 46 nM.
For `O=C(Nc1cccc(CN2CCC(C(=O)NC3CCCCC3)CC2)c1)c1ccno1` [Example 1.049], the EC50 was 7 nM.
In the case of `O=C(Nc1cccc(CN2CCC(C(=O)NC3CCCCC3)CC2)c1)c1ccccc1Cl` [Example 1.050], the EC50 is reported as 12 nM.
With `Cn1cnc(C(=O)Nc2cccc(CN3CCC(C(=O)NC4CCCCC4)CC3)c2)c1` [Example 1.051] the EC50 was 130 nM.
Work on `O=C(CC1Cc2ccccc2C1)Nc1cccc(CN2CCC(C(=O)NC3CCCCC3)CC2)c1` [Example 1.052] yielded an EC50 of 36 nM.
For `O=C(Nc1cccc(CN2CCC(C(=O)NC3CCCCC3)CC2)c1)c1ccncc1` [Example 1.053], the EC50 was 40 nM.
`Cc1cc(C(=O)Nc2cccc(CN3CCC(C(=O)NC4CCCCC4)CC3)c2)cc(C2CCCC2)n1` [Example 1.054] gave an EC50 of 41 nM.
In the case of `Cc1cc(C(=O)Nc2cccc(CN3CCC(C(=O)NC4CCCCC4)CC3)c2)ccn1` [Example 1.055], the EC50 is reported as 10 nM.
Work on `O=C(Nc1cccc(CN2CCC(C(=O)NC3CCCCC3)CC2)c1)c1cncc(F)c1` [Example 1.056] yielded an EC50 of 7 nM.
`O=C(Nc1cccc(CN2CCC(C(=O)NC3CCCCC3)CC2)c1)c1ccc(F)cn1` [Example 1.057] showed an EC50 of 0.8 nM.
`O=C(Nc1cccc(CN2CCC(C(=O)NC3CCCCC3)CC2)c1)c1cncc(C(F)(F)F)c1` [Example 1.058] gave an EC50 of 5 nM.
In the case of `O=C(Nc1cccc(CN2CCC(C(=O)NC3CCCCC3)CC2)c1)c1cccnc1C(F)(F)F` [Example 1.059], the EC50 is reported as 393 nM.
`Cc1cncc(C(=O)Nc2cccc(CN3CCC(C(=O)NC4CCCCC4)CC3)c2)c1` [Example 1.060] gave an EC50 of 4 nM.
For `Cc1cccnc1C(=O)Nc1cccc(CN2CCC(C(=O)NC3CCCCC3)CC2)c1` [Example 1.061], the EC50 was 1 nM.
`COc1cc(C(=O)Nc2cccc(CN3CCC(C(=O)NC4CCCCC4)CC3)c2)nc(OC)n1` [Example 1.062] showed an EC50 of 57 nM.
In the case of `Cc1ccncc1C(=O)Nc1cccc(CN2CCC(C(=O)NC3CCCCC3)CC2)c1` [Example 1.063], the EC50 is reported as 237 nM.
Molecule `Cc1ccc(C(=O)Nc2cccc(CN3CCC(C(=O)NC4CCCCC4)CC3)c2)cn1` [Example 1.064] has an EC50 of 19 nM.
`Cc1ncccc1C(=O)Nc1cccc(CN2CCC(C(=O)NC3CCCCC3)CC2)c1` [Example 1.065] showed an EC50 of 59 nM.
With `O=C(Nc1cccc(CN2CCC(C(=O)NC3CCCCC3)CC2)c1)c1cccnc1Cl` [Example 1.066] the EC50 was 44 nM.
In the case of `O=C(Nc1cccc(CN2CCC(C(=O)NC3CCCCC3)CC2)c1)c1ccc(Cl)nc1` [Example 1.067], the EC50 is reported as 2 nM.
Molecule `O=C(Nc1cccc(CN2CCC(C(=O)NC3CCCCC3)CC2)c1)c1ccc(C(F)(F)F)nc1` [Example 1.068] has an EC50 of 7 nM.
Molecule `COc1ncccc1C(=O)Nc1cccc(CN2CCC(C(=O)NC3CCCCC3)CC2)c1` [Example 1.069] has an EC50 of 10 nM.
In the case of `Cc1ccc(C(=O)Nc2cccc(CN3CCC(C(=O)NC4CCCCC4)CC3)c2)c(Cl)n1` [Example 1.070], the EC50 is reported as 40 nM.
In the case of `CCN(CC)c1ccc(C(=O)Nc2cccc(CN3CCC(C(=O)NC4CCCCC4)CC3)c2)cn1` [Example 1.071], the EC50 is reported as 182 nM.
`CN1CCN(c2ccc(C(=O)Nc3cccc(CN4CCC(C(=O)NC5CCCCC5)CC4)c3)cn2)CC1` [Example 1.072] showed an EC50 of 471 nM.
For `O=C(Nc1cccc(CN2CCC(C(=O)NC3CCCCC3)CC2)c1)c1cccnc1N1CCOCC1` [Example 1.073], the EC50 was 371 nM.
Molecule `O=C(Nc1cccc(CN2CCC(C(=O)NC3CCCCC3)CC2)c1)c1ccncc1Cl` [Example 1.074] has an EC50 of 60 nM.
`COc1cc(C(=O)Nc2cccc(CN3CCC(C(=O)NC4CCCCC4)CC3)c2)cc(Cl)n1` [Example 1.075] showed an EC50 of 9 nM.
`O=C(Nc1cccc(CN2CCC(C(=O)NC3CCCCC3)CC2)c1)c1cnc2[nH]ccc2c1` [Example 1.076] gave an EC50 of 26 nM.
Molecule `O=C(Nc1cccc(CN2CCC(C(=O)NC3CCCCC3)CC2)c1)c1cc(Cl)ccn1` [Example 1.077] has an EC50 of 3 nM.
For `O=C(Nc1cccc(CN2CCC(C(=O)NC3CCCCC3)CC2)c1)c1cccc(Cl)n1` [Example 1.078], the EC50 was 1 nM.
Work on `O=C(Nc1cccc(CN2CCC(C(=O)NC3CCCCC3)CC2)c1)c1cccc[n+]1[O-]` [Example 1.080] yielded an EC50 of 14 nM.
`Cc1cccc(C(=O)Nc2cccc(CN3CCC(C(=O)NC4CCCCC4)CC3)c2)n1` [Example 1.081] was tested, and the EC50 was 0.9 nM.
`Cc1ccnc(C(=O)Nc2cccc(CN3CCC(C(=O)NC4CCCCC4)CC3)c2)c1` [Example 1.082] was tested, and the EC50 was 4 nM.
Molecule `Cc1cc(C)nc(C(=O)Nc2cccc(CN3CCC(C(=O)NC4CCCCC4)CC3)c2)c1` [Example 1.083] has an EC50 of 11 nM.
`O=C(Nc1cccc(CN2CCC(C(=O)NC3CCCCC3)CC2)c1)c1ccc(N2CCCC2)cn1` [Example 1.084] was tested, and the EC50 was 39 nM.
`O=C(Nc1cccc(CN2CCC(C(=O)NC3CCCCC3)CC2)c1)c1ncccc1Br` [Example 1.085] gave an EC50 of 1 nM.
